Patent US8916593B2, “Alkoxy-substituted 2-aminopyridines as ALK inhibitors” (Pfizer Inc., priority 2010, dated 2014)
Counter-ions that a name gives are not always drawn.

Assays:
[1] = target: T1, cMet enzyme (Homo sapiens, UniProt P08581); assay: cMet enzymatic activity assay; type: biochemical; details: purified cMet enzyme 7.5 nM, ATP 17 μM (Km)
T1 construct: RTC Lot#032006
Method: cMet Enzymatic Activity Assay
Compounds were added at a final concentration of 2% DMSO in half-log dilutions, starting at 20 μM final concentration. The reactions were initiated by addition of 10 μL of peptide/ATP mix to 10 μL enzyme and 5 μL of compound in 384-well plate. […] Substrate and phosphorylated product were separated with an upstream voltage of −2650 V, a downstream voltage of −500V, and a screen pressure of −1.5 psi. The relative peak heights of substrate and product were measured and ratios were calculated using HTS Well Analyzer Software version 5.2.43 from the manufacturer.

[2] = target: T2, human recombinant wild-type ALK kinase domain (amino acids 1093-1411) (Homo sapiens, UniProt Q9UM73); assay: ALK enzyme assay 2 (microfluidic mobility shift assay); type: biochemical;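 note: kinase reaction run 1 h at room temperature, conversion quantified by electrophoretic separation of fluorescent peptide substrate from phosphorylated product, about 15-20% turnover without inhibitor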
T2 construct: ALK kinase domain (amino acids 1093-1411); made in house
T2 sequence (Q9UM73 1093-1411): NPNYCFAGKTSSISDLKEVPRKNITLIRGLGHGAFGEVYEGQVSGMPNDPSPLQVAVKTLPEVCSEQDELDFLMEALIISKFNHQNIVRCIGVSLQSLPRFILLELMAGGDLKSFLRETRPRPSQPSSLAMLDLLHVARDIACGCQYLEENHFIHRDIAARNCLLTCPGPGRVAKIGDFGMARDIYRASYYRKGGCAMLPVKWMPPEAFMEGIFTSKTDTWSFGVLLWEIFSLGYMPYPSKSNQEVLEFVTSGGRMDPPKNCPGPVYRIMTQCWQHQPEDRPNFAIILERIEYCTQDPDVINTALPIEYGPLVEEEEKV
Method: The reactions were incubated for 1 h at room temperature, stopped by the addition of 0.1 M EDTA, pH 8, and the extent of reactions (˜15-20% conversion with no inhibitor) was determined after electrophoretic separation of the fluorescently labeled peptide substrate and phosphorylated product on an LabChip EZ Reader II (Caliper Life Sciences, Hopkinton, Mass.).

[3] = target: EML4-ALK wt v1 in NIH-3T3 cells (Homo sapiens, UniProt Q9UM73)
EML4-ALK wt v1 in NIH-3T3 cells, sequence (Q9UM73 with tags, fused parts or gaps): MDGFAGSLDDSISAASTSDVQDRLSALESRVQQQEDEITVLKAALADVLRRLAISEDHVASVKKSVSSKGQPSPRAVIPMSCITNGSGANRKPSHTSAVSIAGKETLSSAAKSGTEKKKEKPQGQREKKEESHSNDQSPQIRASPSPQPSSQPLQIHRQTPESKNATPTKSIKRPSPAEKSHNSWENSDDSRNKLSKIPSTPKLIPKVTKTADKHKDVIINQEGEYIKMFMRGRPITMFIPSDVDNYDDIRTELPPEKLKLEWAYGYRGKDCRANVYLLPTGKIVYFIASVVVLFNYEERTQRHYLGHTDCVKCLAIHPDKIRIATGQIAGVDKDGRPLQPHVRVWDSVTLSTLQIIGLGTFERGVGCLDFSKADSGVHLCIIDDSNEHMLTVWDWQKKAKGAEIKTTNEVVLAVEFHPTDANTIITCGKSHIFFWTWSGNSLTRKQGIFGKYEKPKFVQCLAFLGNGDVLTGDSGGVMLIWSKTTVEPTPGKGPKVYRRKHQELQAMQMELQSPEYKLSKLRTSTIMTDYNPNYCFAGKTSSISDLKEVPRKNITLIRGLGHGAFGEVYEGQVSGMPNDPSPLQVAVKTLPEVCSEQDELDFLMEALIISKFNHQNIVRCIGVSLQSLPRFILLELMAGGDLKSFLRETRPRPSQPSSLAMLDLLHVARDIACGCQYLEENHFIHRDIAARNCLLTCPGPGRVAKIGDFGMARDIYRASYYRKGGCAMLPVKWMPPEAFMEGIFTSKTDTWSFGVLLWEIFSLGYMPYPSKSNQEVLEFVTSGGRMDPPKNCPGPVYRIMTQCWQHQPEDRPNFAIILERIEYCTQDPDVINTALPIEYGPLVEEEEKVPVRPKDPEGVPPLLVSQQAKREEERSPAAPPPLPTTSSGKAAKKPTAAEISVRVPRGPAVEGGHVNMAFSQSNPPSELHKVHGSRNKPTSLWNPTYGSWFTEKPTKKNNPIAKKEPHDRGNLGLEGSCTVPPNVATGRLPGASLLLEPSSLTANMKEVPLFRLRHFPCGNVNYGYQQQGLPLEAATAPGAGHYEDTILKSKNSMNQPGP

[4] = target: T3, ALK enzyme (Homo sapiens, UniProt Q9UM73); assay: ALK enzymatic activity assay 1; type: biochemical
T3 construct: purchased Invitrogen PV4185
T3 sequence (Q9UM73 19-1620): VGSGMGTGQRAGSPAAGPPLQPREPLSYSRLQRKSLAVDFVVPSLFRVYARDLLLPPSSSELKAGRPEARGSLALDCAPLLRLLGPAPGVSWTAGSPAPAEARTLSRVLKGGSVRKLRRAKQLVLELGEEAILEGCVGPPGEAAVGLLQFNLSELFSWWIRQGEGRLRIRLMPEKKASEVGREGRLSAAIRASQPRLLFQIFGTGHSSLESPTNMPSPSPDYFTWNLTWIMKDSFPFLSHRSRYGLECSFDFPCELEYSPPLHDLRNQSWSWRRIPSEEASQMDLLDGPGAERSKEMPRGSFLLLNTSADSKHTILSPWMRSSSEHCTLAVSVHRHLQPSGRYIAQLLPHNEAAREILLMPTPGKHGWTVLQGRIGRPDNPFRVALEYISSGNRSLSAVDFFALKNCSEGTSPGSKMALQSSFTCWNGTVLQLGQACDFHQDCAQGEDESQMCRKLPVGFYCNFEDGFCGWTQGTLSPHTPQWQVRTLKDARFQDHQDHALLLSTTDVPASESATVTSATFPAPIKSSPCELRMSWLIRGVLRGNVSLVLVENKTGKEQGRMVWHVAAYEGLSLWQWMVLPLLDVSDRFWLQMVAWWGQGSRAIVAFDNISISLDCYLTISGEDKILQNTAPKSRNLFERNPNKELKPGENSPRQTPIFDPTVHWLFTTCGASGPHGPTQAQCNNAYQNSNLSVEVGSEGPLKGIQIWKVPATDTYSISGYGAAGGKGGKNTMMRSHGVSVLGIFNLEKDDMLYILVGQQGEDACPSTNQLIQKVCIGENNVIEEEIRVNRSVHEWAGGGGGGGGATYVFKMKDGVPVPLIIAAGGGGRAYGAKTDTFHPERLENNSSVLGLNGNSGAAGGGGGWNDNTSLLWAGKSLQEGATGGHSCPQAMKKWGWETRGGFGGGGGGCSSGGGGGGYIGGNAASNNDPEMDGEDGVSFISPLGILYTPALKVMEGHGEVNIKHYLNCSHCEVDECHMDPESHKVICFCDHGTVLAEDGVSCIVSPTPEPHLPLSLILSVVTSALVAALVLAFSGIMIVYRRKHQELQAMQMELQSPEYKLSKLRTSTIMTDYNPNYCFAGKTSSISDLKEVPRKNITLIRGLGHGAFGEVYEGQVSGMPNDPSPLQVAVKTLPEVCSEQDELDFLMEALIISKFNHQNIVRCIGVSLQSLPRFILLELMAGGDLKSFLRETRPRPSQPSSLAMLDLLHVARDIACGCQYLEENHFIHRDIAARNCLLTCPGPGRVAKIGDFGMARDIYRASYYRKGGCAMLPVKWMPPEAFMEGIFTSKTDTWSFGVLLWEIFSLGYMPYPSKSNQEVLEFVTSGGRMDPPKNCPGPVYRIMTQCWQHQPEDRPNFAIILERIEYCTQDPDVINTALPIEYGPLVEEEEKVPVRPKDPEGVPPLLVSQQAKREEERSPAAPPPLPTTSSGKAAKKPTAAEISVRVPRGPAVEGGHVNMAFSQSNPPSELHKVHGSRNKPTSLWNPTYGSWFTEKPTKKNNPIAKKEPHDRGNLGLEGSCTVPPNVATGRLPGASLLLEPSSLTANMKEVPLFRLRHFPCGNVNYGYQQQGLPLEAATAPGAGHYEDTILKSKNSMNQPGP
Method: ALK Enzymatic Activity Assay 1
Compounds were added at a final concentration of 1% DMSO in half-log dilutions, starting at 20 μM final concentration. The reactions were initiated by the addition of 10 μL of peptide/ATP mix to 10 μL enzyme and 2 μL of compound in 384-well plate. […] On the 12-sipper chip, substrate and phosphorylated product were separated with an upstream voltage of −2650 V, a downstream voltage of −500 V, and a screen pressure of −1.5 psi. The relative peak heights of substrate and product were measured and ratios were calculated using HTS Well Analyzer Software version 5.2.43 from the manufacturer.

T1 sequence (P08581 25-1390): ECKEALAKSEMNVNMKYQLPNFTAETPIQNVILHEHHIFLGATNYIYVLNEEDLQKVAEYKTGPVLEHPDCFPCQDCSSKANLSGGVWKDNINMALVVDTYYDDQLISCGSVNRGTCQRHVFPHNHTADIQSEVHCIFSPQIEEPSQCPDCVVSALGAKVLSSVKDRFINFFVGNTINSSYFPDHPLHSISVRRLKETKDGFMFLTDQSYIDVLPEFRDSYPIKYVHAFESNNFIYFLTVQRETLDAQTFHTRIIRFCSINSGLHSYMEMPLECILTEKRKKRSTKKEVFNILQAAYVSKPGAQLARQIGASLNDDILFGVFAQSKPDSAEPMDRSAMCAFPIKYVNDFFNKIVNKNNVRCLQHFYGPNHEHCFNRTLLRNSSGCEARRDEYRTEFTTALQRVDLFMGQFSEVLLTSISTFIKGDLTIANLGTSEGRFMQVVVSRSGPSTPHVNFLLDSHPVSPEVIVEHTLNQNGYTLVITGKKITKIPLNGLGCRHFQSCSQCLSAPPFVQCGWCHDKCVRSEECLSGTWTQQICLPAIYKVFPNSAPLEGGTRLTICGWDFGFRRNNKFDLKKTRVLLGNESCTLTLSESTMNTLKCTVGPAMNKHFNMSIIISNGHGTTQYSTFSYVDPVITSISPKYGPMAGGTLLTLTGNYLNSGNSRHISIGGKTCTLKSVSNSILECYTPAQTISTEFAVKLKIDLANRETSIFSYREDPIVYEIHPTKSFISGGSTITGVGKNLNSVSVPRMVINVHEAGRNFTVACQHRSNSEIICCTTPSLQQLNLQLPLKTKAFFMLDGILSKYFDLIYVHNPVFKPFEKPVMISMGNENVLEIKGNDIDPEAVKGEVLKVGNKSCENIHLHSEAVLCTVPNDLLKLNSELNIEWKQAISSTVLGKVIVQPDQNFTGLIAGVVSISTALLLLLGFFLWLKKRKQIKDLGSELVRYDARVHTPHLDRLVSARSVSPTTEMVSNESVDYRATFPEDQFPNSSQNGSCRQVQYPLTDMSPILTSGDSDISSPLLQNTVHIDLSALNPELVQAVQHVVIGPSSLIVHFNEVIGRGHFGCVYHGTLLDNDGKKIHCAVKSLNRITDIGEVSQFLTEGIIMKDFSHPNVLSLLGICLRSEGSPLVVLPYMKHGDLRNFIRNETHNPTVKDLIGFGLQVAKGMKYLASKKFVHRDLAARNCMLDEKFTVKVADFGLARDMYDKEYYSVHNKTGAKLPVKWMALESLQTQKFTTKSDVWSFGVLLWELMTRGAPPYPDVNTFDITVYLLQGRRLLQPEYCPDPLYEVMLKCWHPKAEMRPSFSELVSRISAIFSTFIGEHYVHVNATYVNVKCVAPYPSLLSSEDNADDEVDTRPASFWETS

IC50 [1] [µM] | Ki [2] [µM] | IC50 [3] [µM] | IC50 [4] [µM] | SMILES
4.44 | 0.000401 | 0.0233 | 0.027 | COc1ccc(F)cc1[C@@H](C)Oc1cc(-c2c(C)nn(CCO)c2C)cnc1N [Example 53, 2-(4-{6-amino-5-[(1R)-1-(5-fluoro-2-methoxyphenyl)-ethoxy]pyridin-3-yl}-3,5-dimethyl-1H-pyrazol-1-yl)ethanol]
11.2 | 0.0013 | 0.123 | 0.0381 | COc1ccc(F)cc1C(C)Oc1cc(-c2c(OC)cnn2C)cnc1N (stereo not drawn) [Example 16, 3-[1-(5-fluoro-2-methoxyphenyl)ethoxy]-5-(4-methoxy-1-methyl-1H-pyrazol-5-yl)pyridin-2-amine]
2.85 | < 0.0002 | 0.0457 | 0.0705 | Cc1n[nH]cc1-c1cnc(N)c(OC(C)c2cc(F)ccc2-n2cccn2)c1 (stereo not drawn) [Example 47, 3-{1-[5-fluoro-2-(1H-pyrazol-1-yl)phenyl]-ethoxy}-5-(3-methyl-1H-pyrazol-4-yl)pyridin-2-amine]
> 20 | 0.0013 | 0.159 | 0.0865 | COc1ccc(F)cc1C(C)Oc1nc(-c2cn(C)cn2)cnc1N (stereo not drawn) [Example 58, 3-[1-(5-fluoro-2-methoxyphenyl)ethoxy]-5-(1-methyl-1H-imidazol-4-yl)pyrazin-2-amine]
> 20 | 0.0055 | 0.591 | 0.132 | COc1ccc(F)cc1C(C)Oc1cc(-c2ncsc2CO)cnc1N (stereo not drawn) [Example 13, (4-{6-amino-5-[1-(5-fluoro-2-methoxyphenyl)ethoxy]-pyridin-3-yl}-1,3-thiazol-5-yl)methanol]
> 15.9 | 0.00205 | 0.263 | 0.0581 | CC(Oc1cc(-c2ccnn2C)cnc1N)c1cc(F)cc2scnc12 (stereo not drawn) [Example 42, 3-[1-(6-fluoro-1,3-benzothiazol-4-yl)ethoxy]-5-(1-methyl-1H-pyrazol-5-yl)pyridin-2-amine]
> 20 | 0.013 | 0.631 | 0.126 | CC(Oc1nc(-c2cn(C)cn2)cnc1N)c1cc(F)ccc1Cl (stereo not drawn) [Example 59, 3-[1-(2-chloro-5-fluorophenyl)ethoxy]-5-(1-methyl-1H-imidazol-4-yl)pyrazin-2-amine]
7.61 | 0.00193 | 0.0724 | 0.0517 | COc1ccc(F)cc1C(C)Oc1cc(-c2cncc(S(C)(=O)=O)c2)cnc1N (stereo not drawn) [Example 4, 5-[1-(5-fluoro-2-methoxyphenyl)ethoxy]-5′-(methylsulfonyl)-3,3′-bipyridin-6-amine]
4.16 | 0.00157 | 0.106 | 0.0756 | Cc1n[nH]cc1-c1cnc(N)c(OC(C)c2cc(F)ccc2Cl)c1 (stereo not drawn) [Example 45, 3-[1-(2-chloro-5-fluorophenyl)ethoxy]-5-(3-methyl-1H-pyrazol-4-yl)pyridin-2-amine]
> 15.8 | 0.022 | 0.862 | 0.12 | CC(Oc1cc(-c2ccnn2C)cnc1N)c1cc(F)ccc1C#N (stereo not drawn) [Example 36, 2-(1-{[2-amino-5-(1-methyl-1H-pyrazol-5-yl)pyridin-3-yl]oxy}ethyl)-4-fluorobenzonitrile monohydrochloride]
> 20 | 0.0048 | 0.38 | 0.0892 | COc1ncc(F)cc1C(C)Oc1cc(-c2ccnn2C)cnc1N (stereo not drawn) [Example 33, 3-[1-(5-fluoro-2-methoxypyridin-3-yl)ethoxy]-5-(1-methyl-1H-pyrazol-5-yl)pyridin-2-amine monohydrochloride]
5.59 | 0.000922 | 0.0586 | 0.0157 | COc1ncc(F)cc1C(C)Oc1cc(-c2c[nH]nc2C)cnc1N (stereo not drawn) [Example 41, 3-[1-(5-fluoro-2-methoxypyridin-3-yl)ethoxy]-5-(3-methyl-1H-pyrazol-4-yl)pyridin-2-amine]
